We go through nine compounds from ChEMBL document CHEMBL5120745, “LC-MS Identification, Isolation, and Structural Elucidation of Anti-HIV Tigliane Diterpenoids from Wikstroemia lamatsoensis” (J Nat Prod, 2021).

Data set [1] in a line: Cytotoxicity against human MT4 cells assessed as reduction in cell viability by CellTiter-Glo luminescence analysis. The class given is toxicity, cell-based.
The nature of data set [2]: Selectivity index, ratio of CC50 for human MT4 cells to IC50 for antiviral activity against HIV-1 NL4-3 infected in human MT4 cells. The class given is toxicity, cell-based. As to conditions: read-out: Ratio CC50/IC50.
Data set [3] deals with Human immunodeficiency virus 1. The data set can be described thus: Antiviral activity against HIV-1 NL4-3 infected in human MT4 cells assessed as inhibition of viral replication by Nano-Glo luciferase assay. It counts as functional, organism-based. As to conditions: Human immunodeficiency virus 1, NL4-3, MT4.

As usually defined, the CC50 is the concentration giving 50% cytotoxicity. For the compound `CCCCCCCC(=O)O[C@@]12[C@H](OC(=O)c3ccccc3)[C@@H](C)[C@]3(O)[C@@H]4C=C(C)C(=O)[C@@]4(O)[C@H](O)C(CO)=C[C@H]3[C@@H]1C2(C)C`, in data set [1], the CC50 is > 41 nM.
`CCCCCCCC(=O)O[C@@]12[C@H](OC(=O)c3ccccc3)[C@@H](C)[C@@]3(O)[C@H]([C@@H]1C2(C)C)[C@@H](OO)C(CO)=C[C@]1(O)C(=O)C(C)=C[C@@H]31`: in data set [2], the selectivity ratio was < 5.
For orientation: IC50 means the concentration at which inhibition is half-maximal. `C=C(C)[C@]12C[C@@H](COC(=O)c3ccccc3)[C@@]34OC5(O[C@@H]1[C@@H]3[C@@H]1O[C@]1(CO)[C@@H](O)[C@@]1(O)[C@H]4[C@H]([C@H](C)[C@@H]1OC(=O)c1ccccc1)[C@H](C)CCCCCC[C@H]5O)O2`: the CC50 in data set [1] is > 5 nM. The half-maximal inhibitory concentration (IC50) in data set [3] was 0.07 nM.
Take `CCCCCCCC(=O)O[C@@]12[C@H](OC(=O)c3ccccc3)[C@@H](C)[C@@]3(O)C(=C[C@](O)(CO)C[C@]4(O)C(=O)C(C)=C[C@@H]34)[C@@H]1C2(C)C`: in data set [1], the CC50 was > 41 nM. Further, the IC50 in data set [3] was > 41 nM.
Take `CCCCCCCC(=O)O[C@@]12[C@H](OC(=O)c3ccccc3)[C@@H](C)[C@@]3(O)[C@@H](C(=O)C(CO)=C[C@]4(O)C(=O)C(C)=C[C@@H]34)[C@@H]1C2(C)C`: the CC50 in data set [1] was > 41 nM.
Regarding `CCCCCCCC(=O)O[C@@]12[C@H](OC(=O)c3ccccc3)[C@@H](C)[C@@]3(O)[C@H]([C@@H]1C2(C)C)[C@@H](O)C(CO)=C[C@]1(O)C(=O)C(C)=C[C@@H]31`, the cytotoxic concentration (CC50) in data set [1] is > 41 nM. Besides, the IC50 in data set [3] is > 41 nM.
With `CCCCCCCC(=O)O[C@@]12[C@H](OC(=O)c3ccccc3)[C@@H](C)[C@@]3(O)[C@@H](C=C(CO)C[C@]4(O)C(=O)C(C)=C[C@@H]34)[C@@H]1C2(C)C`, in data set [1], the CC50 was > 41 nM. Also, the concentration for half-maximal inhibition (IC50) in data set [3] amounted to 0.18 nM.
As for `CCCCCCCC(=O)O[C@@]12C[C@@H](C)[C@@]3(O)[C@H]([C@@H]1C2(C)C)[C@@H](OO)C(CO)=C[C@]1(O)C(=O)C(C)=C[C@@H]31`, in data set [1], the CC50 is > 41 nM. Moreover, in data set [3], the IC50 was > 41 nM.
Regarding `CCCCCCCC(=O)O[C@@]12C[C@@H](C)[C@@]3(O)[C@@H](C(=O)C(CO)=C[C@]4(O)C(=O)C(C)=C[C@@H]34)[C@@H]1C2(C)C`, the CC50 in data set [1] is > 41 nM. Further, in data set [3], the IC50 was > 41 nM.
